Reference: article PMC10300102, “In vivo inhibition of nuclear ACE2 translocation protects against SARS-CoV-2 replication and lung damage through epigenetic imprinting” (Nature Communications, 2023)
Where a SMILES comes first, the peptide text is derived from it. The star is where a group is joined. Myristoyl = CCCCCCCCCCCCCC(=O)*

Assay: Mouse tolerance studies
Assay type: in vivo, C57BL/6 J mice
Design: Mouse organ weight - i.v. treatment, Brain / Mouse organ weight - i.v. treatment, Heart / Mouse organ weight - i.v. treatment, Kidney / Mouse organ weight - i.v. treatment, Liver / Mouse organ weight - i.v. treatment, Lungs / Mouse organ weight - i.v. treatment, Spleen: unit not given here
Experimental: For NACE2i intraperitoneal (i.p.) studies, female C57BL/6 J mice (6-8 weeks, 3 per group) were treated with a single bolus dose of NACE2i at 3, 10, 30, or 100 mg/kg intraperitoneally for seven days. For NACE2i intravenous (i.v.) studies, male C57BL/6 J mice (6–8 weeks, 5 per group) were treated with daily bolus doses of either sodium chloride 0.9% vehicle or NACE2i at 3, 10, or 30 mg/kg intravenously for six days. For ACE2i studies, male C57BL/6 J mice (6 weeks, 5 per group) were treated with daily bolus doses of either saline vehicle or ACE2i at 10, 30, or 100 mg/kg intravenously or at 3, 10, and 30 mg/kg intranasally (i.n.) for six days. All treatments were administered on day 1, and all mice were observed and weighed daily prior to being euthanized for organ examination. All mice were purchased from the Animal Resources Centre (Canning Vale, Western Australia, Australia) and studies were carried out by Agilex Biolabs (St Lucia, Queensland, Australia). Animals were maintained in housing rooms under controlled environmental conditions: individually ventilated cages (IVCs) with a 12/12 light/dark cycle. The ambient temperature is set to 20–25 °C and relative humidity at 30-70% rH. The University of Queensland Animal Ethics Committee assessed and approved all studies (project code 2021/AE000659).

[1] = i.p. single bolus 10 mg/kg, n=3
[2] = i.p. single bolus 30 mg/kg, n=3
[3] = i.p. single bolus 100 mg/kg, n=3
[4] = i.v. daily for 6 days 3 mg/kg, n=5
[5] = i.v. daily for 6 days 10 mg/kg, n=5
[6] = i.v. daily for 6 days 30 mg/kg, n=5

CCCCCCCCCCCCCC(=O)N[C@H](C(=O)NCC(=O)N[C@H](C(=O)N[C@@H](CCCNC(=N)N)C(=O)N[C@@H](CC(=O)O)C(=O)N[C@@H](CCCNC(=N)N)C(=O)N[C@@H](CCCCN)C(=O)N[C@@H](CCCCN)C(=O)N[C@@H](CCCCN)C(=O)N[C@@H](CC(N)=O)C(=O)N[C@@H](CCCCN)C(=O)N[C@@H](C)C(=O)N[C@@H](CCCNC(=N)N)C(=O)N[C@@H](CO)C(=O)O)[C@@H](C)CC)[C@@H](C)O [NACE2i] (Myristoyl-TGIRDRKKKNKARS-OH)
Mouse organ weight - i.v. treatment, Liver (S 1f, i.v. 10 mg/kg, mean, N 5): 1432.4 | Mouse organ weight - i.v. treatment, Lungs (S 1f, i.v. 10 mg/kg, mean, N 5): 140.86 | Mouse organ weight - i.v. treatment, Spleen (S 1f, i.v. 10 mg/kg, mean, N 5): 79.75 | Mouse organ weight - i.v. treatment, Brain (S 1f, i.v. 30 mg/kg, mean, N 5): 422.35 | Mouse organ weight - i.v. treatment, Heart (S 1f, i.v. 30 mg/kg, mean, N 5): 102.55 | Mouse organ weight - i.v. treatment, Kidney (S 1f, i.v. 30 mg/kg, mean, N 5): 221.42 | Mouse organ weight - i.v. treatment, Liver (S 1f, i.v. 30 mg/kg, mean, N 5): 1090.2 | Mouse organ weight - i.v. treatment, Lungs (S 1f, i.v. 30 mg/kg, mean, N 5): 130.37 | Mouse organ weight - i.v. treatment, Spleen (S 1f, i.v. 30 mg/kg, mean, N 5): 68.35 | body weight (female C57BL/6 J mice, single i.p. bolus up to 100 mg/kg, seven days): without significant changes in body weight | Diarrhoea, mild (number of mice) (i.p. single bolus 3 mg/kg, n=3): 0 | No abnormalities (number of mice) (i.p. single bolus 3 mg/kg, n=3): 3 | Palpebral closure, mild (number of mice) (i.p. single bolus 3 mg/kg, n=3): 0 | Piloerection, mild (number of mice) (i.p. single bolus 3 mg/kg, n=3): 0 | Reduced activity, mild (number of mice) (i.p. single bolus 3 mg/kg, n=3): 0 | Reduced activity, moderate (number of mice) (i.p. single bolus 3 mg/kg, n=3): 0 | Right limb raised, mild (number of mice) (i.p. single bolus 3 mg/kg, n=3): 0 | Diarrhoea, mild (number of mice) [1]: 0 | No abnormalities (number of mice) [1]: 3 | Palpebral closure, mild (number of mice) [1]: 0 | Piloerection, mild (number of mice) [1]: 0 | Reduced activity, mild (number of mice) [1]: 0 | Reduced activity, moderate (number of mice) [1]: 0 | Right limb raised, mild (number of mice) [1]: 0 | Diarrhoea, mild (number of mice) [2]: 0 | No abnormalities (number of mice) [2]: 0 | Palpebral closure, mild (number of mice) [2]: 1 | Piloerection, mild (number of mice) [2]: 0 | Reduced activity, mild (number of mice) [2]: 3 | Reduced activity, moderate (number of mice) [2]: 0 | Right limb raised, mild (number of mice) [2]: 3 | Diarrhoea, mild (number of mice) [3]: 1 | No abnormalities (number of mice) [3]: 0 | Palpebral closure, mild (number of mice) [3]: 0 | Piloerection, mild (number of mice) [3]: 2 | Reduced activity, mild (number of mice) [3]: 2 | Reduced activity, moderate (number of mice) [3]: 2 | Right limb raised, mild (number of mice) [3]: 0 | Hunched posture, mild (number of mice) [4]: 0 | No abnormalities (number of mice) [4]: 5 | Palpebral closure, mild (number of mice) [4]: 0 | Piloerection, mild (number of mice) [4]: 0 | Reduced activity, mild (number of mice) [4]: 0 | Reduced activity, moderate (number of mice) [4]: 0 | Tremors, mild (number of mice) [4]: 0 | Hunched posture, mild (number of mice) [5]: 0 | No abnormalities (number of mice) [5]: 5 | Palpebral closure, mild (number of mice) [5]: 0 | Piloerection, mild (number of mice) [5]: 0 | Reduced activity, mild (number of mice) [5]: 0 | Reduced activity, moderate (number of mice) [5]: 0 | Hunched posture, mild (number of mice) [6]: 1 | No abnormalities (number of mice) [6]: 0 | Palpebral closure, mild (number of mice) [6]: 1 | Piloerection, mild (number of mice) [6]: 0 | Reduced activity, mild (number of mice) [6]: 4 | Reduced activity, moderate (number of mice) [6]: 5 | Tremors, mild (number of mice) [6]: 5 | body or organ weight (male C57BL/6 J mice, daily i.v. bolus up to 30 mg/kg for six days): without significant changes in body or organ weight
